For one assay, the target named is T1, human FPR2 (Homo sapiens, UniProt P25090).
T1 sequence (P25090 1-351): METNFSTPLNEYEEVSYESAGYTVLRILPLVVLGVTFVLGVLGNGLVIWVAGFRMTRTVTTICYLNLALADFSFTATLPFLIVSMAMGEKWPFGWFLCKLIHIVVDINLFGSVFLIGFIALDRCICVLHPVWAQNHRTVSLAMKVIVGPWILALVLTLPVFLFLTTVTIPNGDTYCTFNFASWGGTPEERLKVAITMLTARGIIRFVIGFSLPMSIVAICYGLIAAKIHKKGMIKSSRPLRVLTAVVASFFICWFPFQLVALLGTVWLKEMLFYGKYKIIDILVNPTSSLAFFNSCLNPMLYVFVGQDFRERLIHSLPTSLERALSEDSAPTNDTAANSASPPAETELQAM
The assay is described as follows: FPR2 cyclic adenosine monophosphate (cAMP) assay. It is filed as cell-based. The note with it: CHO cells overexpressing human FPR2; forskolin 5 μM; inhibition of cAMP production; HTRF; read-out: hFPR2 cAMP2 EC50. In short, it runs like this: (§1)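 Gi-coupled activity is read as suppression of forskolin-stimulated cAMP (10 μM final for FPR1, 5 μM final for FPR2; IBMX 200 μM final) in recombinant CHO cells, 30 min incubation at rt, HTRF detection.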

In the next assay the target is T2, human FPR1 (Homo sapiens, UniProt P21462).
T2 sequence (P21462 1-350): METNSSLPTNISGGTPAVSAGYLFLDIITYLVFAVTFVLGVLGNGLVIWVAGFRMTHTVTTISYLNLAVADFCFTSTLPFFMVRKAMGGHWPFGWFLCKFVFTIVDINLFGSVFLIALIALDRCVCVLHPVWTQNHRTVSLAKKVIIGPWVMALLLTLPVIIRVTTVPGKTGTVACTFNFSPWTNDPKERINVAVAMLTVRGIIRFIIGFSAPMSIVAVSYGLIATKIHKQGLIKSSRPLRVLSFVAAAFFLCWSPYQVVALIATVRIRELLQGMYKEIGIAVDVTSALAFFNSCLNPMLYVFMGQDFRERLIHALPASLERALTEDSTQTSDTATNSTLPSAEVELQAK
The assay can be described thus: FPR1 cyclic adenosine monophosphate (cAMP) assay. The note with it: CHO cells overexpressing human FPR1; forskolin 10 μM; inhibition of cAMP production; HTRF; read-out: hFPR1 cAMP2 EC50. Format: cell-based. In outline: as §1
On the technique in general: Cyclic AMP is a second messenger, typically raised through Gs and lowered through Gi signalling.

As a reminder, the EC50 is the midpoint of the concentration-response curve. Take `CCOc1ccc(Cl)nc1-n1c(=O)c(NC(=O)c2ccc(OC(F)F)cc2)c(-c2c(F)cc(OC)cc2F)n1C` [Example 248, N-[2-(6-chloro-3-ethoxypyridin-2-yl)-5-(2,6-difluoro-4-methoxyphenyl)-1-methyl-3-oxo-2,3-dihydro-1H-pyrazol-4-yl]-4-(difluoromethoxy)benzamide]: the EC50 on human FPR2 is 8 nM; on human FPR1 it was > 10000 nM.

In the case of `COc1cc(F)c(-c2c(NC(=O)c3ccc(OC(F)F)cc3)c(=O)n(-c3ccnc(OC)c3)n2C)c(F)c1` [Example 115, N-[5-(2,6-difluoro-4-methoxyphenyl)-2-(2-methoxypyridin-4-yl)-1-methyl-3-oxo-2,3-dihydro-1H-pyrazol-4-yl]-4-(difluoromethoxy)benzamide], the EC50 on human FPR2 turned out to be 5 nM; on human FPR1, 280 nM.

In the case of `COc1cc(F)c(-c2c(NC(=O)c3ccc(OC(F)F)cc3)c(=O)n(-c3nc(Nc4cn(C)nc4C)ccc3C(F)(F)F)n2C)c(F)c1` [Example 228, N-[5-(2,6-difluoro-4-methoxyphenyl)-2-{6-[(1,3-dimethyl-1H-pyrazol-4-yl)amino]-3-(trifluoromethyl)pyridin-2-yl}-1-methyl-3-oxo-2,3-dihydro-1H-pyrazol-4-yl]-4-(difluoromethoxy)benzamide], the EC50 was 1 nM on human FPR2 and > 5000 nM on human FPR1.

For `COc1cc(F)c(-c2c(NC(=O)c3ccc(OC(F)F)cc3)c(=O)n(-c3ncccc3OC(F)F)n2C)c(F)c1` [Example 158, N-[5-(2,6-difluoro-4-methoxyphenyl)-2-[3-(difluoromethoxy)pyridin-2-yl]-1-methyl-3-oxo-2,3-dihydro-1H-pyrazol-4-yl]-4-(difluoromethoxy)benzamide], the values for the EC50 at human FPR2 and on human FPR1 were 13 nM and > 10000 nM, respectively.

Take `COc1cc(O)nc(-n2c(=O)c(NC(=O)c3ccc(OC(F)F)cc3)c(-c3c(F)cc(OC)cc3F)n2C)c1` [Example 326, N-(5-(2,6-Difluoro-4-methoxyphenyl)-2-(6-hydroxy-4-methoxypyridin-2-yl)-1-methyl-3-oxo-2,3-dihydro-1H-pyrazol-4-yl)-4-(difluoromethoxy)benzamide]: the EC50 on human FPR2 is 58 nM; on human FPR1, 1600 nM.

As to `COc1cc(F)c(-c2c(NC(=O)c3ccc(OC(F)(F)F)cc3)c(=O)n(-c3cccc(Cl)c3Cl)n2C)c(F)c1` [Example 35, N-[2-(2,3-dichlorophenyl)-5-(2,6-difluoro-4-methoxyphenyl)-1-methyl-3-oxo-2,3-dihydro-1H-pyrazol-4-yl]-4-(trifluoromethoxy)benzamide], the results for the EC50 at human FPR2 and at human FPR1 were 6 nM and 1700 nM, respectively.

On to `COc1ccc(-c2c(NC(=O)c3ccc(OC(F)F)cc3)c(=O)n(-c3ncccc3C(F)(F)F)n2C)cc1Cl` [Example 221, N-(5-(3-chloro-4-methoxyphenyl)-1-methyl-3-oxo-2-(3-(trifluoromethyl)pyridin-2-yl)-2,3-dihydro-1H-pyrazol-4-yl)-4-(difluoromethoxy)benzamide], for which the EC50 is 141 nM on human FPR2 and > 5000 nM on human FPR1.

Turning to `COc1cc(F)c(-c2c(NC(=O)c3ccc(OC(F)F)cc3)c(=O)n(-c3ccc(OCCO)cn3)n2C)c(F)c1` [Example 388, N-(5-(2,6-Difluoro-4-methoxyphenyl)-2-(5-(2-hydroxyethoxy)pyridin-2-yl)-1-methyl-3-oxo-2,3-dihydro-1H-pyrazol-4-yl)-4-(difluoromethoxy)benzamide], the results for the half-maximal effective concentration (EC50) on human FPR2 and on human FPR1 were 4 nM and 3600 nM, respectively.

Regarding `COc1cc(F)c(-c2c(NC(=O)c3ccc(OC(F)F)cc3)c(=O)n(-c3cccc(C(C)(C)O)n3)n2C)c(F)c1` [Example 85], the EC50 was 5 nM at human FPR2 and 750 nM at human FPR1.

Take `CCOC(=O)c1cc(F)cc(-n2c(=O)c(NC(=O)c3ccc(OC(F)F)cc3)c(-c3c(F)cc(OC)cc3F)n2C)c1` [Example 133, ethyl 3-[3-(2,6-difluoro-4-methoxyphenyl)-4-[4-(difluoromethoxy)benzamido]-2-methyl-5-oxo-2,5-dihydro-1H-pyrazol-1-yl]-5-fluorobenzoate]: the EC50 at human FPR2 amounted to 3 nM; at human FPR1, 550 nM.

`COc1cc(F)c(-c2c(NC(=O)c3ccc(OC(F)(F)F)cc3)c(=O)n(-c3cccc(C(F)F)n3)n2C)c(F)c1` [Example 68, N-[5-(2,6-difluoro-4-methoxyphenyl)-2-[6-(difluoromethyl)pyridin-2-yl]-1-methyl-3-oxo-2,3-dihydro-1H-pyrazol-4-yl]-4-(trifluoromethoxy)benzamide]: the EC50 came to 8 nM at human FPR2 and 1000 nM on human FPR1.

As to `COc1cc(F)c(-c2c(NC(=O)c3ccc(OC(F)(F)F)cc3)c(=O)n(-c3cccc(OC(F)F)n3)n2C)c(F)c1` [Example 169, N-[5-(2,6-difluoro-4-methoxyphenyl)-2-[6-(difluoromethoxy)pyridin-2-yl]-1-methyl-3-oxo-2,3-dihydro-1H-pyrazol-4-yl]-4-(trifluoromethoxy)benzamide], the EC50 was found to be 15 nM on human FPR2 and 1400 nM on human FPR1.

Consider `COc1cc(F)c(-c2c(NC(=O)c3ccc(OC(F)F)cc3)c(=O)n(-c3ccccc3Cl)n2C)c(F)c1` [Example 171, N-[2-(2-chlorophenyl)-5-(2,6-difluoro-4-methoxyphenyl)-1-methyl-3-oxo-2,3-dihydro-1H-pyrazol-4-yl]-4-(difluoromethoxy)benzamide], for which the EC50 was 12 nM at human FPR2 and > 10000 nM at human FPR1.

Consider `COc1cc(F)c(-c2c(NC(=O)c3ccc(OC(F)F)cc3)c(=O)n(-c3nc(C(F)(F)F)ccc3OCC3(C)COC3)n2C)c(F)c1` [Example 358, N-(5-(2,6-Difluoro-4-methoxyphenyl)-1-methyl-2-(3-((3-methyloxetan-3-yl)methoxy)-6-(trifluoromethyl)pyridin-2-yl)-3-oxo-2,3-dihydro-1H-pyrazol-4-yl)-4-(difluoromethoxy)benzamide], for which the 50% effective concentration (EC50) at human FPR2 was 9 nM; on human FPR1, > 10000 nM.

`COc1cc(F)c(-c2c(NC(=O)c3ccc(OC(F)F)cc3)c(=O)n(-c3nc(N4CCN5CCC[C@@H]5C4)ccc3C(F)(F)F)n2C)c(F)c1` [Example 306, N-(2-{6-[(8aR)-octahydropyrrolo[1,2-a]piperazin-2-yl]-3-(trifluoromethyl)pyridin-2-yl}-5-(2,6-difluoro-4-methoxyphenyl)-1-methyl-3-oxo-2,3-dihydro-1H-pyrazol-4-yl)-4-(difluoromethoxy)benzamide]: the figures for the EC50 at human FPR2 and on human FPR1 were 1 nM and 2300 nM, respectively.

Consider `COc1cc(F)c(-c2c(NC(=O)c3ccc(OC(F)(F)F)cc3)c(=O)n(-c3ccccc3)n2C)c(F)c1` [Example 4, N-[5-(2,6-difluoro-4-methoxyphenyl)-1-methyl-3-oxo-2-phenyl-2,3-dihydro-1H-pyrazol-4-yl]-4-(trifluoromethoxy)benzamide], for which the EC50 on human FPR2 was found to be 8 nM; at human FPR1, 1300 nM.

`COc1cc(F)c(-c2c(NC(=O)c3ccc(OC(F)F)cc3)c(=O)n(-c3cccc(N4CCOCC4)n3)n2C)c(F)c1` [Example 79, N-[5-(2,6-difluoro-4-methoxyphenyl)-1-methyl-2-[6-(morpholin-4-yl)pyridin-2-yl]-3-oxo-2,3-dihydro-1H-pyrazol-4-yl]-4-(difluoromethoxy)benzamide]: the EC50 was 10 nM on human FPR2 and > 10000 nM at human FPR1.

Take `COc1cc(F)c(-c2c(NC(=O)c3ccc(OC(F)F)cc3)c(=O)n(-c3nc(NC(C)(C)CO)ccc3C(F)(F)F)n2C)c(F)c1` [Example 256, N-[5-(2,6-difluoro-4-methoxyphenyl)-2-{6-[(1-hydroxy-2-methylpropan-2-yl)amino]-3-(trifluoromethyl)pyridin-2-yl}-1-methyl-3-oxo-2,3-dihydro-1H-pyrazol-4-yl]-4-(difluoromethoxy)benzamide]: the EC50 on human FPR2 is 3 nM; at human FPR1, > 10000 nM.

Consider `COc1cc(F)c(-c2c(NC(=O)c3ccc(OC(F)F)cc3)c(=O)n(-c3nc(NCC4(CO)CCC4)ccc3C(F)(F)F)n2C)c(F)c1` [Example 290, N-[5-(2,6-difluoro-4-methoxyphenyl)-2-[6-({[1-(hydroxymethyl)cyclobutyl]-methyl}amino)-3-(trifluoromethyl)pyridin-2-yl]-1-methyl-3-oxo-2,3-dihydro-1H-pyrazol-4-yl]-4-(difluoromethoxy)benzamide], for which the EC50 on human FPR2 is 1 nM; at human FPR1, > 10000 nM.

For `COc1cc(F)c(-c2c(NC(=O)c3ccc(OC(F)F)cc3)c(=O)n(-c3nc(NCCO)ccc3C(F)(F)F)n2C)c(F)c1` [Example 225, N-[5-(2,6-difluoro-4-methoxyphenyl)-2-{6-[(2-hydroxyethyl)amino]-3-(trifluoromethyl)pyridin-2-yl}-1-methyl-3-oxo-2,3-dihydro-1H-pyrazol-4-yl]-4-(difluoromethoxy)benzamide], the results for the EC50 at human FPR2 and at human FPR1 were 3 nM and > 10000 nM, respectively.

The record behind these values is US12577206B2 (BRISTOL-MYERS SQUIBB COMPANY, priority 2020, dated 2026).
